Data reported in patent US12252524B2, “GIP/GLP1 co-agonist compounds” (Eli Lilly and Company, priority 2018, dated 2025).
Numbered stars: 1 amine (or outer) side, 2 acyl side, 3 side chain; on linkers, the order of the positions; unused ones are H or OH. Square brackets hold non-standard residues; d marks the D form. Side chains are listed from the residue outwards. Peptide text beside a SMILES is read from it. * marks the point of attachment. C20 diacid = O=C(O)CCCCCCCCCCCCCCCCCCC(=O)*; C18 diacid = O=C(O)CCCCCCCCCCCCCCCCC(=O)*; γGlu = O=C(O)[C@H](CCC(=O)[*:2])N[*:1]; αMeL = CC(C)C[C@](C)(N)C(=O)O; Orn = NCCC[C@H](N)C(=O)O; AEEA = NCCOCCOCC(=O)O; Aib = CC(C)(N)C(=O)O

How the values were obtained:
human Gcg receptor = target: T1, human Gcg receptor (Homo sapiens, UniProt P47871); assay: [125I]-Glucagon binding (SPA), human Gcg receptor; details: read-out: hGLcgR Ki, nM (SEM, n)
T1 construct: expressed in transfected cells; crude membranes
T1 sequence (P47871 26-477): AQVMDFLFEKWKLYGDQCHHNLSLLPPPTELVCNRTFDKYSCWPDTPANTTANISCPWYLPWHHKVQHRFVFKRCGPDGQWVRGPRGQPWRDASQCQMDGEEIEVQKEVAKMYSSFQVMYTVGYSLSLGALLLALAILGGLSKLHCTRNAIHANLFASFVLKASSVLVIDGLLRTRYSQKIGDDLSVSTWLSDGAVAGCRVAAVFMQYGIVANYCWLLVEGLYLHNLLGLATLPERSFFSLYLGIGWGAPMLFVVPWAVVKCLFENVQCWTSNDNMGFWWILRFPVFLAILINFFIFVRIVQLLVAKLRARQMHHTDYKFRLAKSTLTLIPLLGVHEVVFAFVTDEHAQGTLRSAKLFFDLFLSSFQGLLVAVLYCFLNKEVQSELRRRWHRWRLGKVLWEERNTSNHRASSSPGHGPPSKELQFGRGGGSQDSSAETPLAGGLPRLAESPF
How it was run: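 Scintillation counts are taken after membranes and WGA beads incubate and settle for 12 hours at room temperature. Buffer is 25 mM HEPES, pH 7.4, with CaCl2, MgCl2, bacitracin and Tween-20. Ki values, from four-parameter IC50 fits, are geometric means over independent days.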

human GIP receptor = target: T2, human GIP receptor (Homo sapiens, UniProt P48546); assay: [125I]-GIP binding (SPA), human GIP receptor; details: read-out: hGIPR Ki, nM (SEM, n)
T2 construct: expressed in transfected cells; crude membranes
T2 sequence (P48546 22-466): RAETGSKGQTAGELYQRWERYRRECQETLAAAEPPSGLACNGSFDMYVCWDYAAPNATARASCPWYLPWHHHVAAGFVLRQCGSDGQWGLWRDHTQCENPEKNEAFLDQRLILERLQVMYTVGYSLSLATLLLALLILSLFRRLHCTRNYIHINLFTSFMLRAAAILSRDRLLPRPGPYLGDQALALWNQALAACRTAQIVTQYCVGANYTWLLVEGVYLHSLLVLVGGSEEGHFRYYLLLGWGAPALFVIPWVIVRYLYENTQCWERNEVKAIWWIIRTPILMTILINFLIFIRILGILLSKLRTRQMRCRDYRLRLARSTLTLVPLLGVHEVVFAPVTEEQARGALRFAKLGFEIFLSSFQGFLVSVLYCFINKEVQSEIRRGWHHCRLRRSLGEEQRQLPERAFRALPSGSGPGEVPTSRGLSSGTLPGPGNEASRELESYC

[1] = target: human GLP-1 receptor (GLP-1R) (Homo sapiens, UniProt P43220); assay: cAMP pharmacological functional assay in presence of casein, hGLP-1R; format: cell-based; details: HEK293 cells expressing hGLP-1R, 0.1% Casein, geometric mean; read-out: hGLP1R cAMP Rel EC50 nM (SEM, n)
human GLP-1 receptor (GLP-1R), sequence (P43220 24-463): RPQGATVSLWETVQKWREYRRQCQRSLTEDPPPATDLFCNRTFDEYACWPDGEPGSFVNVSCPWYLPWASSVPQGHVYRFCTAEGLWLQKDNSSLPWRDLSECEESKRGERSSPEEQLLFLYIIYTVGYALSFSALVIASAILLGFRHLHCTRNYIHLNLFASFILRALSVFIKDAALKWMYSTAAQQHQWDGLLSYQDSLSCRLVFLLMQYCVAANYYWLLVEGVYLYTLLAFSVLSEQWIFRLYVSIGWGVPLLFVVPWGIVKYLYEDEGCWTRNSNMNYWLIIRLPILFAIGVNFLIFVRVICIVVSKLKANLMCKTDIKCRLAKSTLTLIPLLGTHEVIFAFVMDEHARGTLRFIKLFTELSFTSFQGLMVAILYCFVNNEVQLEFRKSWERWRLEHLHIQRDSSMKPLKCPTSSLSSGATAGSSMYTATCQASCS

[2] = target: T3, gastric inhibitory peptide receptor (GIPR) (Homo sapiens, UniProt P48546); assay: cAMP pharmacological functional assay in presence of casein, hGIPR; format: cell-based; details: HEK293 cells expressing hGIPR, 0.1% Casein, geometric mean; read-out: hGIPR cAMP Rel EC50 nM (SEM, n)
T3 sequence (P48546 22-466): T2 sequence (P48546 22-466)

human GLP-1R [3] = target: T4, human GLP-1R (Homo sapiens, UniProt P43220); assay: [125I]-GLP-1 binding (SPA), human GLP-1 receptor; design: expressed in transfected cells; crude membranes; details: read-out: hGLP1R Ki, (nM) (SEM, n)
T4 sequence (P43220 24-463): as above
How it was run: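 Ki values are geometric means with SEM over independent replicates on different days, derived from IC50s fitted by four-parameter nonlinear regression. The assay used crude cell membranes in HEPES buffer, pH 7.4, containing CaCl2, MgCl2, bacitracin and TWEEN-20.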

human GLP-1R [4] = target: T4, human GLP-1R; assay: GLP-1R CHO cell β-arrestin recruitment assay; format: cell-based; design: host or cells: CHO-K1 PathHunter cells, assay-ready frozen; details: for EC50: CHO-K1 cells; for hGLP1R B-Arrestin2 % Top: normalized to GLP-1 maximum control
How it was run: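 Peptide-induced β-arrestin-2 recruitment measured by enzyme-fragment complementation luminescence after 90 min at 37 °C plus 60 min detection at RT.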

human GLP-1R [5] = target: T4, human GLP-1R; assay: GLP-1R HEK293 cell membrane [35S]GTPγS binding assay; format: biochemical; design: expressed in transfected cells; host or cells: HEK293 cells expressing human GLP-1R; membranes; details: HEK293 cell membranes expressing human GLP-1R, [35S]GTPγS binding; read-out: hGLP1R GTPgS Rel EC50 nM (SEM, n)
How it was run: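 Agonist-driven Gαs activation read as [35S]GTPγS ([…]) binding to receptor-expressing HEK293 membranes, 30 min at room temperature, pH 7.4. Detection by anti-Gαs immunocapture on scintillation beads; EC50 derived from four-parameter logistic concentration-response fit.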

[6] = PathHunter β-arrestin-2 recruitment, 0.1% casein, read-out: hGLP1R B-Arrestin2 Rel EC50 uM (SEM, n)
[7] = 0.1% w/v hydrolyzed Casein, read-out: hGLP1R B-Arrestin2 Rel EC50

SMILES	Ki (human Gcg receptor) [nM]	Ki (human GIP receptor) [nM]	EC50 [1] [nM]	EC50 [2] [nM]	Ki (human GLP-1R [3]) [nM]	EC50 (human GLP-1R [4]; [6]) [µM]	hGLP1R B-Arrestin2 % Top (human GLP-1R [4]) [%]	EC50 (human GLP-1R [5]) [nM]	EC50 (human GLP-1R [4]; [7]) [µM]
CC[C@H](C)[C@H](NC(=O)[C@H](CC(C)C)NC(=O)[C@H](Cc1ccc(O)cc1)NC(=O)[C@H](CCC(=O)O)NC(=O)[C@@H](NC(=O)[C@H](Cc1ccccc1)NC(=O)[C@H](C)NC(=O)C(C)(C)NC(=O)[C@H](CCC(N)=O)NC(=O)[C@H](C)NC(=O)[C@H](CCCCNC(=O)COCCOCCNC(=O)COCCOCCNC(=O)CC[C@H](NC(=O)CCCCCCCCCCCCCCCCC(=O)O)C(=O)O)NC(=O)[C@H](CCCCN)NC(=O)[C@H](CC(=O)O)NC(=O)[C@H](CC(C)C)NC(=O)[C@H](CC(C)C)NC(=O)[C@@H](NC(=O)[C@H](CO)NC(=O)[C@H](Cc1ccc(O)cc1)NC(=O)[C@H](CC(=O)O)NC(=O)[C@H](CO)NC(=O)[C@@H](NC(=O)[C@H](Cc1ccccc1)NC(=O)[C@@H](NC(=O)CNC(=O)[C@H](CCC(=O)O)NC(=O)C(C)(C)NC(=O)[C@@H](N)Cc1ccc(O)cc1)[C@@H](C)O)[C@@H](C)O)[C@@H](C)CC)[C@@H](C)CC)C(=O)N[C@@H](CCC(=O)O)C(=O)NCC(=O)NCC(=O)N1CCC[C@H]1C(=O)N[C@@H](CO)C(=O)N[C@@H](CO)C(=O)NCC(N)=O [Example 266] (H-Y[Aib]EGTFTSDYSILLDKK([AEEA-AEEA-γGlu-C18 diacid])AQ[Aib]AFIEYLIEGGPSSG-NH2)	193	0.0666	0.0883	0.0442	2.01	0.016	17.1	0.865	–
CC[C@H](C)[C@H](NC(=O)[C@H](CC(C)C)NC(=O)[C@H](Cc1ccc(O)cc1)NC(=O)[C@H](CCC(=O)O)NC(=O)[C@@H](NC(=O)[C@H](Cc1ccccc1)NC(=O)[C@H](C)NC(=O)C(C)(C)NC(=O)[C@H](CCC(N)=O)NC(=O)[C@H](C)NC(=O)[C@H](CCCCNC(=O)COCCOCCNC(=O)COCCOCCNC(=O)CC[C@H](NC(=O)CCCCCCCCCCCCCCCCC(=O)O)C(=O)O)NC(=O)[C@H](CCCCN)NC(=O)[C@H](CC(=O)O)NC(=O)[C@H](CC(C)C)NC(=O)[C@H](CC(C)C)NC(=O)[C@@H](NC(=O)[C@H](CO)NC(=O)[C@H](Cc1ccc(O)cc1)NC(=O)[C@H](CC(=O)O)NC(=O)[C@H](CO)NC(=O)[C@@H](NC(=O)[C@H](Cc1ccccc1)NC(=O)[C@@H](NC(=O)CNC(=O)[C@H](CCC(=O)O)NC(=O)C(C)(C)NC(=O)[C@@H](N)Cc1ccc(O)cc1)[C@@H](C)O)[C@@H](C)O)[C@@H](C)CC)[C@@H](C)CC)C(=O)N[C@@H](CCC(=O)O)C(=O)NCC(=O)NCC(N)=O [Example 267] (H-Y[Aib]EGTFTSDYSILLDKK([AEEA-AEEA-γGlu-C18 diacid])AQ[Aib]AFIEYLIEGG-NH2)	349	0.0628	0.054	0.108	1.57	0.00901	16.5	0.867	–
CC[C@H](C)[C@H](NC(=O)[C@H](CC(C)C)NC(=O)[C@H](Cc1ccc(O)cc1)NC(=O)[C@H](CCC(=O)O)NC(=O)[C@@H](NC(=O)[C@H](Cc1ccccc1)NC(=O)[C@H](C)NC(=O)C(C)(C)NC(=O)[C@H](CCC(N)=O)NC(=O)[C@H](C)NC(=O)[C@H](CCCCNC(=O)COCCOCCNC(=O)COCCOCCNC(=O)CC[C@H](NC(=O)CCCCCCCCCCCCCCCCC(=O)O)C(=O)O)NC(=O)[C@H](CCCCN)NC(=O)[C@H](CC(=O)O)NC(=O)[C@H](CC(C)C)NC(=O)[C@H](CC(C)C)NC(=O)[C@@H](NC(=O)[C@H](CO)NC(=O)[C@H](Cc1ccc(O)cc1)NC(=O)[C@H](CC(=O)O)NC(=O)[C@H](CO)NC(=O)[C@@H](NC(=O)[C@H](Cc1ccccc1)NC(=O)[C@@H](NC(=O)CNC(=O)[C@H](CCC(=O)O)NC(=O)C(C)(C)NC(=O)[C@@H](N)Cc1ccc(O)cc1)[C@@H](C)O)[C@@H](C)O)[C@@H](C)CC)[C@@H](C)CC)C(=O)N[C@@H](C)C(=O)NCC(=O)NCC(=O)N1CCC[C@H]1C(=O)N[C@@H](CO)C(=O)N[C@@H](CO)C(=O)NCC(N)=O [Example 272] (H-Y[Aib]EGTFTSDYSILLDKK([AEEA-AEEA-γGlu-C18 diacid])AQ[Aib]AFIEYLIAGGPSSG-NH2)	550	0.0353	0.0435	0.0464	1.22	> 12	–	0.651	> 12
CC[C@H](C)[C@H](NC(=O)[C@H](CC(C)C)NC(=O)[C@H](Cc1ccc(O)cc1)NC(=O)[C@H](CCC(=O)O)NC(=O)[C@@H](NC(=O)[C@H](Cc1ccccc1)NC(=O)[C@H](CCC(=O)O)NC(=O)C(C)(C)NC(=O)[C@H](CCC(N)=O)NC(=O)[C@H](C)NC(=O)[C@H](CCCCNC(=O)COCCOCCNC(=O)COCCOCCNC(=O)CC[C@H](NC(=O)CCCCCCCCCCCCCCCCCCC(=O)O)C(=O)O)NC(=O)[C@H](CCCCN)NC(=O)[C@H](CC(=O)O)NC(=O)[C@H](CC(C)C)NC(=O)[C@](C)(CC(C)C)NC(=O)[C@@H](NC(=O)[C@H](CO)NC(=O)[C@H](Cc1ccc(O)cc1)NC(=O)[C@H](CC(=O)O)NC(=O)[C@H](CO)NC(=O)[C@@H](NC(=O)[C@H](Cc1ccccc1)NC(=O)[C@@H](NC(=O)CNC(=O)[C@H](CCC(=O)O)NC(=O)C(C)(C)NC(=O)[C@H](N)Cc1ccc(O)cc1)[C@@H](C)O)[C@@H](C)O)[C@@H](C)CC)[C@@H](C)CC)C(=O)N[C@@H](C)C(=O)NCC(=O)NCC(=O)N1CCC[C@H]1C(=O)N[C@@H](CO)C(=O)N[C@@H](CO)C(=O)NCC(=O)N[C@@H](C)C(=O)N1CCC[C@H]1C(=O)N1CCC[C@H]1C(=O)N1CCC[C@H]1C(=O)N[C@@H](CO)C(N)=O [Example 290] (H-[dY][Aib]EGTFTSDYSI[αMeL]LDKK([AEEA-AEEA-γGlu-C20 diacid])AQ[Aib]EFIEYLIAGGPSSGAPPPS-NH2)	308	0.0617	0.179	0.0629	2.44	0.0238	20.0	0.466	–
CC[C@H](C)[C@H](NC(=O)[C@H](CC(C)C)NC(=O)[C@H](Cc1ccc(O)cc1)NC(=O)[C@@H](CCC(=O)O)NC(=O)[C@@H](NC(=O)[C@H](Cc1ccccc1)NC(=O)[C@H](C)NC(=O)C(C)(C)NC(=O)[C@H](CCC(N)=O)NC(=O)[C@H](C)NC(=O)[C@H](CCCCNC(=O)COCCOCCNC(=O)COCCOCCNC(=O)CC[C@H](NC(=O)CCCCCCCCCCCCCCCCCCC(=O)O)C(=O)O)NC(=O)[C@H](CCCN)NC(=O)[C@H](CC(=O)O)NC(=O)[C@H](CC(C)C)NC(=O)[C@](C)(CC(C)C)NC(=O)[C@@H](NC(=O)[C@H](CO)NC(=O)[C@H](Cc1ccc(O)cc1)NC(=O)[C@H](CC(=O)O)NC(=O)[C@H](CO)NC(=O)[C@@H](NC(=O)[C@H](Cc1ccccc1)NC(=O)[C@@H](NC(=O)CNC(=O)[C@H](CCC(=O)O)NC(=O)C(C)(C)NC(=O)[C@H](N)Cc1ccc(O)cc1)[C@@H](C)O)[C@@H](C)O)[C@@H](C)CC)[C@@H](C)CC)C(=O)N[C@@H](C)C(=O)NCC(=O)NCC(=O)N1CCC[C@H]1C(=O)N[C@@H](CO)C(=O)N[C@@H](CO)C(=O)NCC(=O)N[C@@H](C)C(=O)N1CCC[C@H]1C(=O)N1CCC[C@H]1C(=O)N1CCC[C@H]1C(=O)N[C@@H](CO)C(N)=O [Example 291] (H-[dY][Aib]EGTFTSDYSI[αMeL]LD[Orn]K([AEEA-AEEA-γGlu-C20 diacid])AQ[Aib]AFI[dE]YLIAGGPSSGAPPPS-NH2)	> 872	0.129	0.15	0.118	3.16	> 10	–	0.466	> 10
